Measured values as given in patent US11142514B2, “Imino compounds with a 2-chloropyrimidin-5-yl substituent as pest-control agents” (BASF SE, priority 2015, dated 2021).

Columns and labels:
Assay type in all cases: in vivo
[1] = system: Green Soldier Stink Bug (Nezara viridula); assay: Green soldier stink bug (Nezara viridula) test B.8; conditions: in Glycine max, 120 h, read-out: mortality in comparison with untreated controls
Procedure: (§1) The active compound was dissolved at the desired concentration in a mixture of 1:1 (vol:vol) distilled water: acetone. Surfactant (Kinetic® HV) was added at a rate of 0.01% (vol/vol). The test solution was prepared at the day of use.
Soybean pods were placed in 90×50 mm glass Petri dishes lined with moist filter paper and inoculated with ten late 3rd instar N. viridula. Using a hand atomizer, an approximately 2 ml solution was sprayed into each Petri dish. Treated cups were kept at about 25-26° C. and relative humidity of about 65-70%. Percent mortality was recorded after 5 days.

[2] = system: Southern armyworm (Spodoptera eridania); assay: Southern armyworm (Spodoptera eridania) foliar spray test B.15; conditions: for Activity in %: comparative experiment, 300 ppm
Procedure: (§2) The active compounds were formulated by a Tecan liquid handler in 100% cyclohexanone as a 10,000 ppm solution supplied in tubes. The 10,000 ppm solution was serially diluted in 100% cyclohexanone to make interim solutions. These served as stock solutions for which final dilutions were made by the Tecan in 50% acetone:50% water (v/v) into 10 or 20 ml glass vials. A nonionic surfactant (Kinetic®) was included in the solution at a volume of 0.01% (v/v). The vials were then inserted into an automated electrostatic sprayer equipped with an atomizing nozzle for application to plants/insects.
Lima bean plants (variety Sieva) were grown 2 plants to a pot and selected for treatment at the 1st true leaf stage. Test solutions were sprayed onto the foliage by an automated electrostatic plant sprayer equipped with an atomizing spray nozzle. The plants were dried in the sprayer fume hood and then removed from the sprayer. Each pot was placed into perforated plastic bags with a zip closure. About 10 to 11 armyworm larvae were placed into the bag and the bags zipped closed. Test plants were maintained in a growth room at about 25° C. and about 20-40% relative humidity for 4 days, avoiding direct exposure to fluorescent light (24 hour photoperiod) to prevent trapping of heat inside the bags. Mortality and reduced feeding were assessed 4 days after treatment, compared to untreated control plants.
(§3) The compound of example I-1 was compared with the compound of example I.B-4 of WO 2015/040116 having an unsubstituted pyrimidin-5-yl ring instead of the present 2-chloropyrimidin-5-yl ring with respect to the insecticidal activity. The assays were carried out as described above for the respective pest (the cotton aphid assay according to B.3).

[3] = system: Rice green leafhopper (Nephotettix virescens); assay: Rice green leafhopper (Nephotettix virescens) spray test B.12; conditions: for Activity in %: comparative experiment, 10 ppm
Procedure: (§4) Four to five-week old rice seedlings with cut upper leaf portion were cleaned and washed 24 hours before spraying. The active compounds were formulated in 1:1 acetone:water (vol:vol), and 0.01% vol/vol surfactant (Kinetic® HV) was added. Potted rice seedlings were sprayed with 5-6 ml test solution, air dried, covered with Mylar cages and inoculated with 10 adults. Treated rice plants were kept at about 28-29° C. and relative humidity of about 50-60%. Percent mortality was recorded after 72 hours.
as §3

[4] = system: Cotton aphid (Aphis gossypii); assay: Cotton aphid (Aphis gossypii) foliar spray test B.3; conditions: for Activity in %: comparative experiment, 300 ppm, assay according to B.3
Procedure: as §2
Cotton plants at the cotyledon stage were infested with aphids prior to treatment by placing a heavily infested leaf from the main aphid colony on top of each cotyledon. Aphids were allowed to transfer overnight to accomplish an infestation of 80-100 aphids per plant and the host leaf was removed. The infested plants were then sprayed by an automated electrostatic plant sprayer equipped with an atomizing spray nozzle. The plants were dried in the sprayer fume hood, removed from the sprayer, and then maintained in a growth room under fluorescent lighting in a 24-hr photoperiod at 25° C. and 20-40% relative humidity. Aphid mortality on the treated plants, relative to mortality on untreated control plants, was determined after 5 days.
as §3

[5] = system: Green Peach Aphid (Myzus persicae); assay: Green peach aphid (Myzus persicae) foliar spray test B.7; conditions: for Activity in %: comparative experiment, 300 ppm
Procedure: as §2
Bell pepper plants at the first true-leaf stage were infested prior to treatment by placing heavily infested leaves from the main colony on top of the treatment plants. Aphids were allowed to transfer overnight to accomplish an infestation of 30-50 aphids per plant and the host leaves were removed. The infested plants were then sprayed by an automated electrostatic plant sprayer equipped with an atomizing spray nozzle. The plants were dried in the sprayer fume hood, removed, and then maintained in a growth room under fluorescent lighting in a 24 h photoperiod at about 25° C. and about 20-40% relative humidity. Aphid mortality on the treated plants, relative to mortality on untreated control plants, was determined after 5 days.
as §3

[6] = system: Orchid thrips (Dichromothrips corbetti); assay: Orchid thrips (Dichromothrips corbetti) floral immersion test B.10; conditions: for Activity in %: comparative experiment, 10 ppm
Procedure: Dichromothrips corbetti adults used for bioassay were obtained from a colony maintained continuously under laboratory conditions. For testing purposes, the test compound was diluted in a 1:1 mixture of acetone:water (vol:vol), plus Kinetic® HV at a rate of 0.01% v/v.
Thrips potency of each compound was evaluated by using a floral immersion technique. All petals of individual, intact orchid flowers were dipped into treatment solution and allowed to dry in Petri dishes. Treated petals were placed into individual re-sealable plastic along with about 20 adult thrips. All test arenas were held under continuous light and a temperature of about 28° C. for duration of the assay. After 3 days, the numbers of live thrips were counted on each petal. The percent mortality was recorded 72 hours after treatment.
as §3

[7] = system: Cowpea aphid (Aphis craccivora); assay: Cowpea aphid (Aphis craccivora) spray test B.5; conditions: for Activity in %: comparative experiment, 100 ppm
Procedure: as §1
Potted cowpea plants were colonized with approximately 30-50 aphids of various stages by manually transferring a leaf tissue cut from infested plant 24 hours before application. Plants were sprayed with the test solutions using a DeVilbiss® hand atomizer at 20-30 psi (≈1.38 to 2.07 bar) after the pest population has been checked. Treated plants were maintained on light carts at about 25-26° C. Percent mortality was assessed after 72 hours.
as §3

[8] = system: Rice brown plant hopper (Nilaparvata lugens); assay: Rice brown plant hopper (Nilaparvata lugens) spray test B.13; conditions: 72 h, read-out: mortality in comparison with untreated controls
Procedure: as §4, with “seedlings” for “seedlings with cut upper leaf portion”, “(vol:vol)” for “(vol:vol),”

[9] = system: Vetch aphid (Megoura viciae); assay: Vetch aphid (Megoura viciae) leaf disk test B.19; conditions: foliar, 120 h, read-out: mortality in comparison with untreated controls
Procedure: For evaluating control of vetch aphid (Megoura viciae) through contact or systemic means the test unit consisted of 24-well-microtiter plates containing broad bean leaf disks.
The compounds were formulated using a solution containing 75% v/v water and 25% v/v DMSO. Different concentrations of formulated compounds were sprayed onto the leaf disks at 2.5 μl, using a custom built micro atomizer, at two replications.
After application, the leaf disks were air-dried and 5-8 adult aphids placed on the leaf disks inside the microtiter plate wells. The aphids were then allowed to suck on the treated leaf disks and incubated at about 23±1° C. and about 50±5% relative humidity for 5 days. Aphid mortality and fecundity was then visually assessed.

[10] = system: Diamond back moth (Plutella xylostella); assay: Diamond back moth (Plutella xylostella) leaf dip test B.6; conditions: 300 ppm; cabbage leaf dip; 72 hours after treatment
Procedure: as §1
Leaves of cabbage were dipped in test solution and air-dried. Treated leaves were placed in petri dishes lined with moist filter paper and inoculated with ten 3rd instar larvae. Mortality was recorded 72 hours after treatment. Feeding damages were also recorded using a scale of 0-100%.

Structure (SMILES)	mortality at 300 ppm [1] [%]	mortality at 300 ppm ([2]; Spodoptera eridania, in Phaseolus lunatus, foliar, 96 h, read-out: mortality in comparison with untreated controls) [%]	Activity in % [2] [%]	mortality at 300 ppm ([3]; Nephotettix virescens, 72 h, read-out: mortality in comparison with untreated controls) [%]	Activity in % [3] [%]	mortality at 300 ppm ([4]; Aphis gossypii, foliar, 120 h, read-out: mortality in comparison with untreated controls) [%]	Activity in % [4] [%]	mortality at 2500 ppm ([5]; Myzus persicae, foliar, 120 h, read-out: mortality in comparison with untreated controls) [%]	Activity in % [5] [%]	mortality at 300 ppm ([6]; Thrips, 72 h, read-out: mortality in comparison with untreated controls) [%]	Activity in % [6] [%]	mortality at 300 ppm ([7]; Aphis craccivora, 72 h, read-out: mortality in comparison with untreated controls) [%]	Activity in % [7] [%]	mortality at 300 ppm [8] [%]	mortality at 2500 ppm [9] [%]	mortality in comparison with untreated controls [10]
N#CC1(C(=O)N=c2ccccn2Cc2cnc(Cl)nc2)CC1 [I-1, N-[1-[(2-chloropyrimidin-5-yl)methyl]-2-pyridylidene]-1-cyano-cyclopropanecarboxamide]	> 75	> 75	100	> 75	90	> 75	90	> 75	100	> 75	100	> 75	50	> 75	> 75	
CON=CC(=O)N=c1ccccn1Cc1cnc(Cl)nc1 [I-2]																over 75%
N#CC1(C(=O)N=c2ccccn2Cc2cncnc2)CC1 [I.B-4, reference compound]			0		50		0		50		0		0			
